Assays:
[1] = instrument: TW, calibrated with phosphatidylcholines (ESI+) and phosphatidylethanolamines (ESI-)
[2] = instrument: DT, single field, calibrated with Agilent tune mix (Agilent)
[3] = [M+H]+; instrument: DT; stepped-field
[4] = instrument: TW, calibrated with phosphatidylcholines (ESI+) and phosphatidylethanolamines (ESI-); remark: listed apart in the source
[5] = [M+Na]+; instrument: DT; stepped-field

## CCCCCC/C=C\CCCCCCCCCC(=O)OC(COC(=O)CCCCCCCCCCCCCCC)COP(=O)([O-])OCC(O)COC(=O)C(C)[NH3+] (configuration not stated) [AlaPG(34:1)]
[1]; [M+H]+
  collision cross section (N2): 291.7 Å²
[1]; [M+K]+
  collision cross section (N2): 293.6 Å²
[1]; [M+Na]+
  collision cross section (N2): 294.3 Å²

## CCCCCCCCCCCCCC=CCC(=O)OC[C@H](CO[C@@H]1O[C@H](CO[C@H]2O[C@H](CO)[C@H](O)C(O)C2O)[C@H](O)C(O)C1O)OC(=O)CC=CCCCCCCCCCCCCC (some centres not stated) [DGDG(16:0/18:2)]
[1]; [M+CH3COO]-
  collision cross section (N2): 312.7 Å²
[1]; [M+Cl]-
  collision cross section (N2): 304.9 Å²
[1]; [M+NH4]+
  collision cross section (N2): 307.5 Å²
[1]; [M+Na]+
  collision cross section (N2): 306.5 Å²
[1]; [M-H]-
  collision cross section (N2): 301.9 Å²

## CCCCCCCCCCC=CCC=CCC(=O)OC[C@H](CO[C@@H]1O[C@H](CO[C@H]2O[C@H](CO)[C@H](O)C(O)C2O)[C@H](O)C(O)C1O)OC(=O)CC=CCC=CCCCCCCCCCC (some centres not stated) [DGDG(16:1/18:3)]
[1]; [M+Cl]-
  collision cross section (N2): 303.2 Å²
[1]; [M+NH4]+
  collision cross section (N2): 303.5 Å²
[1]; [M+Na]+
  collision cross section (N2): 301.1 Å²
[1]; [M-H]-
  collision cross section (N2): 301.4 Å²

## CCCCCCCC=CCC=CCC=CCC(=O)OC[C@H](CO[C@@H]1O[C@H](CO[C@H]2O[C@H](CO)[C@H](O)C(O)C2O)[C@H](O)C(O)C1O)OC(=O)CC=CCC=CCC=CCCCCCCC (some centres not stated) [DGDG(16:3/18:3)]
[1]; [M+CH3COO]-
  collision cross section (N2): 305.8 Å²
[1]; [M+Cl]-
  collision cross section (N2): 299.9 Å²
[1]; [M+K]+
  collision cross section (N2): 295.2 Å²
[1]; [M+NH4]+
  collision cross section (N2): 296.3 Å²
[1]; [M+Na]+
  collision cross section (N2): 294.9 Å²
[1]; [M-H]-
  collision cross section (N2): 296.1 Å²

## CCCCCCCCC=CCC=CCC=CCC(=O)OC[C@H](CO[C@@H]1O[C@H](CO[C@H]2O[C@H](CO)[C@H](O)C(O)C2O)[C@H](O)C(O)C1O)OC(=O)CC=CCC=CCC=CCCCCCCCC (some centres not stated) [DGDG(18:3/18:3)]
[1]; [M+CH3COO]-
  collision cross section (N2): 313.7 Å²
[1]; [M+Cl]-
  collision cross section (N2): 305.9 Å²
[1]; [M+K]+
  collision cross section (N2): 302.5 Å²
[1]; [M+NH4]+
  collision cross section (N2): 303.2 Å²
[1]; [M+Na]+
  collision cross section (N2): 301.9 Å²
[1]; [M-H]-
  collision cross section (N2): 303.3 Å²

## CCCCCCCCCCCCCC=CCC(=O)OC[C@H](CO[C@@H]1O[C@H](CO[C@H]2O[C@H](CO)[C@H](O)C(O)C2O)[C@H](O)C(O)C1O)OC(=O)CC=CCCCCCCCCCCCCC (some centres not stated) [DGDG(34:2)]
[1]; [M+NH4]+
  collision cross section (N2): 309 Å²
[1]; [M+Na]+
  collision cross section (N2): 305.2 Å²

## CCCCCCCCCCCCCCC=CCC(=O)O[C@H](COC(=O)CC=CCCCCCCCCCCCCCCC)CO[C@@H]1O[C@H](CO[C@H]2O[C@H](CO)[C@H](O)C(O)C2O)[C@H](O)C(O)C1O (some centres not stated) [DGDG(35:2)]
[1]; M+NH4]+
  collision cross section (N2): 315 Å²

## CCCCCCCCCCCCCCCC(=O)OCC(CO[C@@H]1O[C@@H](C(=O)O)[C@H](O)[C@H](O)[C@H]1O)OC(=O)CCCCCCCCCCCCCCC (some centres not stated) [GlcADG(16:0/16:0)]
[1]; [M+NH4]+
  collision cross section (N2): 286 Å²
[1]; [M+Na]+
  collision cross section (N2): 282.6 Å²
[1]; [M-H]-
  collision cross section (N2): 267.9 Å²

## CCCCCC/C=C\CCCCCCCCCC(=O)OC(COC(=O)CCCCCCCCCCCCCCC)CO[C@@H]1O[C@@H](C(=O)O)[C@H](O)[C@H](O)[C@H]1O (some centres not stated) [GlcADG(16:0/18:1)]
[1]; [M+NH4]+
  collision cross section (N2): 290.1 Å²
[1]; [M+Na]+
  collision cross section (N2): 288.1 Å²
[1]; [M-H]-
  collision cross section (N2): 272.7 Å²

## CCCCCCCCCCCCCCCC(=O)OCC(O)COP(=O)([O-])OCC[N+](C)(C)C (configuration not stated) [LPC(16:0)]
[2]; [M+HCOO]-
  collision cross section (N2): 235 Å²
[2]; [M+H]+
  collision cross section (N2): 229.8 Å²
[3]
  collision cross section (N2): 233.3 Å²
[4]; [M+H]+
  collision cross section (N2): 228.5 Å²

## CCCCCCCCCCCCCCCC(=O)OCC(COP(=O)([O-])OCC(O)COC(=O)C(N)CCCC[NH3+])OC(=O)CCCCCCCCCCCCCCC (configuration not stated) [LysPG(16:0/16:0)]
[1]; [M+H]+
  collision cross section (N2): 297 Å²
[1]; [M-H]-
  collision cross section (N2): 291.5 Å²

## CCCCCCCCCCCCCCC(=O)OCC(COP(=O)([O-])OCC(O)COC(=O)C(N)CCCC[NH3+])OC(=O)CCCCCCCCCCCC (configuration not stated) [LysPG(28:0)]
[1]; [M+H]+
  collision cross section (N2): 284.7 Å²

## CCCCCCCCCCCCCCC(=O)OCC(COP(=O)([O-])OCC(O)COC(=O)C(N)CCCC[NH3+])OC(=O)CCCCCCCCCCCCCC (configuration not stated) [LysPG(30:0)]
[1]; [M+H]+
  collision cross section (N2): 290.4 Å²

## CCCCCC/C=C/CCCCCCCC(=O)OCC(COP(=O)([O-])OCC(O)COC(=O)C(N)CCCC[NH3+])OC(=O)CCCCCCCCCCCCC (configuration not stated) [LysPG(30:1)]
[1]; [M+H]+
  collision cross section (N2): 287 Å²

## CCCCCCCCCCCCCCCC(=O)OC(COC(=O)CCCCCCCCCCCCCC)COP(=O)([O-])OCC(O)COC(=O)C(N)CCCC[NH3+] (configuration not stated) [LysPG(31:0)]
[1]; [M+H]+
  collision cross section (N2): 293.9 Å²

## CCCCCC/C=C/CCCCCCCC(=O)OCC(COP(=O)([O-])OCC(O)COC(=O)C(N)CCCC[NH3+])OC(=O)CCCCCCCCCCCCCCC (configuration not stated) [LysPG(32:1)]
[1]; [M+H]+
  collision cross section (N2): 293.5 Å²

## CCCCCC/C=C\CCCCCCCC(=O)OCC(COP(=O)([O-])OCC(O)COC(=O)C(N)CCCC[NH3+])OC(=O)CCCCCCC/C=C\CCCCCC (configuration not stated) [LysPG(32:2)]
[1]; [M+H]+
  collision cross section (N2): 290.8 Å²

## CCCCCCCCCCCCCCCCCCC(=O)OC(COC(=O)CCCCCCCCCCCCCC)COP(=O)([O-])OCC(O)COC(=O)C(N)CCCC[NH3+] (configuration not stated) [LysPG(34:0)]
[1]; [M+H]+
  collision cross section (N2): 302.5 Å²

## CCCCCC/C=C\CCCCCCCCCC(=O)OCC(COP(=O)([O-])OCC(O)COC(=O)C(N)CCCC[NH3+])OC(=O)CCCCCCCCCCCCCCCC (configuration not stated) [LysPG(35:1)]
[1]; [M+H]+
  collision cross section (N2): 303.5 Å²

## CCCCCCCCCCCCCCCCCCCCC(=O)O[C@H](COC(=O)CCCCCCCCCCC)COP(=O)(O)O [PA(33:0)]
[1]; [M-H]-
  collision cross section (N2): 254.5 Å²

## CCCCCCCCCCCCCCCCCCCCCC(=O)OC[C@H](COP(=O)(O)O)OC(=O)CCCCCCCCCCC [PA(34:0)]
[1]; [M-H]-
  collision cross section (N2): 257.6 Å²

## CCCCCCCCCCCCCCCCCCCCC(=O)O[C@H](COC(=O)CCCCCCCCCCCCC)COP(=O)(O)O [PA(35:0)]
[1]; [M-H]-
  collision cross section (N2): 261 Å²

## CCCCC/C=C\C/C=C\CCCCCCCCCCCC(=O)O[C@H](COC(=O)CCCCCCC/C=C\C/C=C\CCCCC)COP(=O)([O-])OCC[N+](C)(C)C [PC(40:4)]
[2]; [M+H]+
  collision cross section (N2): 300.2 Å²
[4]; [M+H]+
  collision cross section (N2): 296.1 Å²

## CCCCC/C=C\C/C=C\C/C=C\CCCCCCC(=O)O[C@H](COC(=O)CCCCCCC/C=C\C/C=C\CCCCC)COP(=O)(O)OCCN [PE(38:5)]
[2]; [M+H]+
  collision cross section (N2): 280.1 Å²
[2]; [M-H]-
  collision cross section (N2): 271.2 Å²
[4]; [M+H]+
  collision cross section (N2): 276 Å²
[4]; [M-H]-
  collision cross section (N2): 269.5 Å²
[5]
  collision cross section (N2): 287.2 Å²

## CC/C=C\C/C=C\C/C=C\C/C=C\C/C=C\CCCC(=O)OC[C@H](COP(=O)(O)OCCN)OC(=O)CCCCC/C=C\C/C=C\C/C=C\C/C=C\CCCCC [PE(42:9)]
[4]; [M+H]+
  collision cross section (N2): 288.2 Å²
[5]
  collision cross section (N2): 295.6 Å²

## CC/C=C\C/C=C\C/C=C\C/C=C\C/C=C\CCCCCC(=O)O[C@H](COC(=O)CCC/C=C\C/C=C\C/C=C\C/C=C\C/C=C\CC)COP(=O)(O)OCCN [PE(42:10)]
[4]; [M+H]+
  collision cross section (N2): 285 Å²
[5]
  collision cross section (N2): 291 Å²

## CCCC/C=C\CCCCCCCC(=O)O[C@H](CO/C=C\CCCCCCCCCCCCCCCCCC)COP(=O)(O)OCCN [PE(p34:1)]
[2]; [M+H]+
  collision cross section (N2): 273.2 Å²
[2]; [M+Na]+
  collision cross section (N2): 276.9 Å²
[2]; [M-H]-
  collision cross section (N2): 262.2 Å²
[4]; [M-H]-
  collision cross section (N2): 262.1 Å²

## CCCCC/C=C\C/C=C\CCCCCCCCCC(=O)O[C@H](CO/C=C\CCCCCCCCCCCCCC)COP(=O)(O)OCCN [PE(p36:2)]
[2]; [M+H]+
  collision cross section (N2): 277.1 Å²
[2]; [M-H]-
  collision cross section (N2): 267.6 Å²
[4]; [M+H]+
  collision cross section (N2): 278.1 Å²
[4]; [M-H]-
  collision cross section (N2): 266.5 Å²

## CCCCC/C=C\C/C=C\C/C=C\C/C=C\CCCCCC(=O)O[C@H](CO/C=C\CCCCCCCCCCCCCC)COP(=O)(O)OCCN [PE(p38:4)]
[2]; [M+H]+
  collision cross section (N2): 281.5 Å²
[4]; [M+H]+
  collision cross section (N2): 280.6 Å²
[4]; [M-H]-
  collision cross section (N2): 270.3 Å²

## CCCCCCCCCCCCCCCCC(=O)O[C@H](COC(=O)CCCCCCCCCCCCCC)COP(=O)(O)OC[C@@H](O)CO [PG(16:0/16:0)]
[1]; [M-H]-
  collision cross section (N2): 264.5 Å²

## CCCCCCCCCCCCCCC(=O)O[C@H](COC(=O)CCCCCCCCCCCC)COP(=O)(O)OC[C@@H](O)CO [PG(28:0)]
[1]; [M-H]-
  collision cross section (N2): 253.1 Å²

## CCCCCCC/C=C\CCCCCCCC(=O)O[C@H](COC(=O)CCCCCCCCCCCC)COP(=O)(O)OC[C@@H](O)CO [PG(30:1)]
[1]; [M-H]-
  collision cross section (N2): 257.1 Å²

## CCCCCC/C=C\CCCCCCCC(=O)O[C@H](COC(=O)CCCCCCCCCCCCCC)COP(=O)(O)OC[C@@H](O)CO [PG(31:1)]
[1]; [M-H]-
  collision cross section (N2): 260.2 Å²

## CCCCCCCCCCCCCCCCCCCCC(=O)OC[C@H](COP(=O)(O)OC[C@@H](O)CO)OC(=O)CCCCCCCCCCC [PG(33:0)]
[1]; [M-H]-
  collision cross section (N2): 268.6 Å²

## CC/C=C\C/C=C\C/C=C\C/C=C\CCCCC(=O)O[C@H](COC(=O)CCCCCCCCCCC/C=C\C/C=C\CCCCC)COP(=O)(O)OC[C@@H](O)CO [PG(40:6)]
[2]; [M+NH4]+
  collision cross section (N2): 296.6 Å²
[2]; [M+Na]+
  collision cross section (N2): 292.4 Å²
[4]; [M+Na]+
  collision cross section (N2): 290 Å²
[4]; [M-H]-
  collision cross section (N2): 281.9 Å²

## CCCCCCCCCC/C=C\CCCCCCCCCC(=O)O[C@H](COC(=O)CCCCCCCCCCCCC)COP(=O)(O)O[C@H]1C(O)C(O)C(O)[C@@H](O)C1O (some centres not stated) [PI(36:1)]
[2]; [M+H]+
  collision cross section (N2): 301.6 Å²
[2]; [M+NH4]+
  collision cross section (N2): 302.2 Å²
[2]; [M+Na]+
  collision cross section (N2): 299 Å²
[2]; [M-H]-
  collision cross section (N2): 290.5 Å²
[4]; [M+Na]+
  collision cross section (N2): 297.2 Å²
[4]; [M-H]-
  collision cross section (N2): 289.6 Å²

Source: the C3SDB collision cross section collection
